The text below walks through data of the SangsterLogP compilation.

One data set in a line: method code SF, from Hansch, C. & Leo, A. (1987). Log P database [Dataset]. Pomona College Medicinal Chemistry Project.
Conditions: not given
Turning to `CCC(C)NC(=O)C(=Cc1ccccc1)Cc1ccccc1` (centres undefined), the logP (commonly a log measure of how a compound divides between an organic and an aqueous phase) was found to be 3.99.
Molecule `S=c1cccc[nH]1` displayed a logP of -0.13.
On to `O=c1[nH]c(=O)c2[nH]cnc2[nH]1`, for which the log partition coefficient (logP) was -0.73.
`CCN(CC)c1ccc(CO)cc1` returned a logP of 2.29.
The same measure, in the same setting: the figure for `CCC(=O)OCCOc1ccc(C=O)cc1OC` is 1.33.
As to `CC(=O)Nc1ccccc1Br`, the lipophilicity (logP) amounted to 1.4.
With `Nc1ccc([N+](=O)[O-])cc1N`, the logP worked out at 0.88.
For `CC(=O)NO`, the log partition coefficient (logP) is -1.59.
Still for that read-out and setting: the figure for `CN(C)C(=O)c1ccoc1` is 0.24.
`O=C(NN=Cc1ccccc1)c1ccccc1` gave a logP of 2.56.
As to `NC(=O)N/N=C/c1ccccc1`, the logP was 1.27.
In the case of `CCC(=O)O[C@]1(C(=O)CO)[C@H](C)C[C@H]2[C@@H]3C[C@H](F)C4=CC(=O)C(Cl)=C[C@]4(C)[C@@]3(F)[C@@H](O)C[C@@]21C`, the logP was determined as 2.99.
`CCC(=O)c1ccncc1` had a logP of 0.77.
In turn, `c1cn[nH]n1` displayed a logP of -0.29.
Take `CSc1ncnc2c1ncn2[C@@H]1O[C@H](CO)[C@@H](O)[C@@H]1O`: the logP worked out at 0.09.
`COC[C@H]1O[C@@H](O)[C@H](NC(=O)N(CCCl)N=O)[C@@H](OC)[C@@H]1OC` gave a log partition coefficient (logP) of 0.8.
As to `CN(C(=O)c1ccccc1)c1ccccc1`, the logP came to 2.36.
As for `N#Cc1cccc(N)c1`, the logP was 1.07.
The same measure, in the same setting: the figure for `O=C(Nc1ccc(Cl)c(Cl)c1)C1CC1` is 3.83; for `CCOc1ccccc1NC(C)=O` it is 1.49; for `CN(C)C#N` it is -0.15.
The molecule `CN(Cc1ccc([N+](=O)[O-])cc1)/N=N/c1ccc(C(=O)O)cc1` showed a logP of 4.03.
The molecule `CCCCCCOC(=O)c1ccc(O)cc1` registered a logP of 4.35.
Same read-out and setting: the same measure for `C=C1C[C@]23C[C@@]1(O)CC[C@H]2[C@@]12C=C[C@H](O)[C@@](C)(C(=O)O1)[C@H]2[C@@H]3C(=O)O`: 0.24; for `COc1ccccc1C(=O)N(C)C`: 0.71.
For the molecule `CCOC(=O)C(=Cc1ccc(OC)cc1)C(=O)OCC`, the logP turned out to be 3.28.
For the molecule `CC(=O)Nc1cccc(C(C)=O)c1`, the logP amounted to 1.1.
`CC(=O)OCCC(=O)N(C)c1ccc(S(=O)(=O)N(C)C)cc1` displayed a logP of 0.26.
Same read-out and setting: the same measure for `c1ccc(Sc2ccccc2)cc1`: 4.45; for `CCOP(=O)(OCC)Oc1ccc(SC)c(C)c1`: 3.28.
On to `C1=CCCCC1`, for which the logP was determined as 2.86.
For `O=S1(=O)NC=Nc2ccc(Cl)cc21`, the logP stood at 1.07.
For the molecule `O=c1[nH]nnc2ccccc12`, the logP came to 0.83.
On the same count and under the same terms, the same measure for `CCC(C)c1ccccc1OC(=O)N(C)C` (centres undefined): 3.31; for `CCOC(=O)C(=Cc1cccc(OCC)c1)C(=O)OCC`: 3.39.
`CNC(=O)Oc1ccccc1C1OCCO1` had a lipophilicity (logP) of 0.67.
`C=COCC` registered a logP of 1.04.
Take `NS(=O)(=O)NS(=O)(=O)Nc1ccccc1`: the logP was found to be 0.02.
`OCC(F)(F)C(F)(F)F` gave a logP of 1.23.
For `O=P(c1ccccc1)(c1ccccc1)c1ccccc1`, the logP was found to be 2.85.
Molecule `O=c1c2ccccc2sc2ccccc12` showed a logP of 3.99.
On to `NS(=O)(=O)Nc1ccccc1`, for which the logP was found to be 0.4.
For the molecule `CC1=Nc2cc(Br)ccc2S(=O)(=O)N1`, the logP amounted to 1.37.
`Cc1ccc2[nH]c(CCCCc3nc4cc(C)ccc4[nH]3)nc2c1` had a logP of 1.64.
Regarding `CC(=O)C(=Cc1ccccc1C)C(C)=O`, the logP was 1.98.
`CCCCC1OC(=O)c2cc(Cl)ccc21` (centres undefined) had a logP of 3.53.
In the case of `Cc1cccc(OC(=O)N(C)C)c1`, the logP came out at 2.05.
`O=C(NC1CC1)c1cc(N2CC2)c([N+](=O)[O-])cc1[N+](=O)[O-]` showed a logP of 0.74.
Molecule `Cc1cccc(C)c1[N+](=O)[O-]` showed a logP of 2.95.
In turn, `COc1cc(C=NOC(=O)c2ccccc2OC)ccc1OCCO` returned a logP of 2.84.
`Cn1ncc2ccccc2c1=O` returned a logP of 0.61.
`CNC(=S)NCc1ccccc1` returned a logP of 1.35.
`Nc1ccc(I)cc1` yielded a logP of 2.34.
`CC[C@H]1OC(=O)[C@H](C)[C@@H](OC2CC(C)(OC)C(O)C(C)O2)C(C)[C@@H](OC2OC(C)CC(N(C)C)C2O)[C@](C)(O)C[C@@H](C)C(=O)[C@H](C)[C@@H](O)[C@H]1C` (some centres undefined) came in with a logP of 3.12.
Take `O=S(=O)(NO)c1ccccc1`: the log partition coefficient (logP) is 0.48.
`O=[N+]([O-])C=Cc1ccsc1` showed a logP of 1.94.
For the molecule `O=C(O)c1ccoc1`, the logP worked out at 1.03.
With `c1ccc2c(c1)CCC2`, the logP was 3.33.
Still for that read-out and setting: the same measure for `O=C1c2ccccc2-c2ccccc21`: 3.58; for `CCOC(=O)C(=Cc1cccc(Cl)c1)C(C)=O`: 2.97.
Same read-out and setting: the figure for `Cc1ccccc1C#N` is 2.21; for `CC(=O)Nc1ccc(C(F)(F)F)cc1` it is 2.52.
`CCOP(=O)(N1CC1(C)C)N1CC1(C)C` (centres undefined) returned a lipophilicity (logP) of 1.02.
For `CC(=O)Nc1cc(OCC(=O)O)ccc1Cl`, the log partition coefficient (logP) came out at 0.75.
In turn, `O=S1(=O)N=C(C2CC=CCC2)Nc2ccccc21` (centres undefined) came in with a logP of 2.05.
In the case of `CC(=O)Nc1ccc2c(=O)c(C)c(C)oc2c1[N+](=O)[O-]`, the logP is 1.61.
Consider `C(=N\N1CCCCC1)/c1ccccc1`, for which the logP was found to be 3.04.
Consider `FS(F)(F)(F)(F)c1ccccc1`, for which the log partition coefficient (logP) is 3.36.
Same read-out and setting: the figure for `Cc1ccc2ncccc2c1` is 2.57; for `CCCCC1OC(=O)c2ccccc21` (centres undefined) it is 2.8; for `CC(=O)c1ccc2ncccc2c1` it is 1.58.
`C/N=C(\NC)NC#N` returned a lipophilicity (logP) of -0.4.
In turn, `CC(C)(Cc1ccccc1)NC(=O)N(CCCl)N=O` showed a logP of 3.73.
Molecule `CCC(C)NC(=O)/C=C/c1ccccc1` (centres undefined) returned a logP of 2.85.
The same measure, in the same setting: the figure for `CC(=O)Nc1ccc(CN(C)/N=N/c2ccc(C(=O)O)cc2)cc1` is 3.35; for `CCOC(=O)C(=Cc1cccc(OC)c1OC)C(C)=O` it is 2.21.
On to `OCc1cccs1`, for which the logP is 0.87.
Same read-out and setting: the same measure for `CC(=O)Nc1cccc(C#N)c1`: 1.2; for `O=[N+]([O-])c1ccc(C=Cc2nc3ccccc3[nH]2)o1`: 1.4; for `CCOP(=S)(OCC)Oc1ncn(-c2ccccc2)n1`: 3.55.
Regarding `COC(=O)C[C@](O)(CCCC(C)(C)O)C(=O)OC1C(OC)=C[C@]23CCCN2CCc2cc4c(cc2[C@H]13)OCO4` (some centres undefined), the log partition coefficient (logP) turned out to be 0.82.
Still for that read-out and setting: the figure for `CCCCC1C(=O)NC(=O)NC1=O` is 0.77.
On the same count and under the same terms, the same measure for `Cc1c(Cl)c(Cl)c(Cl)c(Cl)c1Cl`: 5.62; for `COc1ccc(OC(=O)N(C)C)cc1`: 1.53.
`CCC=O` returned a logP of 0.59.
On the same count and under the same terms, the figure for `CN(C)c1cccc(C(N)=O)c1` is 0.95; for `CNc1ccc(S(=O)(=O)N(C)C)cc1` it is 1.43.
The same measure, in the same setting: the same measure for `CCOC(=O)c1ccncc1`: 1.43.
`OCCCc1nc2ccccc2[nH]1` registered a logP of 1.25.
In turn, `C=CCO` had a logP of 0.17.
Molecule `CCOP(=O)(OCC)Oc1ccc(SC)cc1` had a lipophilicity (logP) of 2.79.
On to `O=c1cnc2ccccc2[nH]1`, for which the logP was 0.8.
For the molecule `CCCC(O)CCC`, the logP came out at 2.22.
Molecule `Cl/C=C/Cl` showed a log partition coefficient (logP) of 2.09.
Still for that read-out and setting: the figure for `Nc1ccccc1O` is 0.57; for `CCC(C)c1ccccc1O` (centres undefined) it is 3.27.
`CCOC(=O)c1csc(C=Cc2ccc([N+](=O)[O-])o2)n1`: the logP worked out at 1.3.
Molecule `N#CN=[N+]([O-])c1cccc(F)c1` displayed a logP of 1.85.
Molecule `ClCCCCl` registered a logP of 2.
In the case of `O=C1C=CC(=O)N1`, the logP was -0.29.
`S=c1cc[nH]cc1` displayed a logP of 0.2.
In turn, `Cc1cccc(C(N)=O)c1` displayed a logP of 1.18.
Same read-out and setting: the figure for `CCOC(=O)C(=Cc1ccc(O)c(OC)c1)C(=O)OCC` is 2.89; for `O=C(C=Cc1ccco1)c1ccco1` it is 2.34; for `O=C1Cc2ccccc2CCc2ccccc21` it is 2.58.
The molecule `CCOC(=O)c1cccnc1` yielded a log partition coefficient (logP) of 1.34.
Turning to `CCOC(=O)C(=Cc1ccc(OC)cc1)C(C)=O`, the logP turned out to be 2.46.

The same data set, now with this note: pH 3.0.
Consider `Cn1nnnc1SCC1=C(C(=O)O)N2C(=O)C(NC(=O)Cc3cccs3)C2SC1` (centres undefined), for which the log distribution coefficient (logD) (as a rule, the decadic logarithm of the distribution of all forms, ionised or not, between an organic phase and buffer at a given pH) was 0.
The molecule `CC(=O)OCC1=C(C(=O)O)N2C(=O)C(NC(=O)CSc3cc(Cl)ccc3Cl)C2SC1` (centres undefined) had a log distribution coefficient (logD) of 1.66.

The same data set, now with this note: pH 5.0.
With `O=c1cccccc1O`, the logD turned out to be 0.75.
Molecule `O=S(Cc1ccccn1)c1nc2ccccc2[nH]1` (centres undefined) returned a logD of 1.33.

Still in this data set, the particulars now being: pH 5.4.
Consider `COC(=O)c1cc2nc(S(=O)Cc3ncccc3C)[nH]c2cc1C` (centres undefined), for which the pH-dependent lipophilicity (logD) amounted to 2.4.

The same data set, now with this note: pH 7.4.
For `O=C(CCCN1CCC(n2c(=O)[nH]c3ccccc32)CC1)c1ccc(F)cc1`, the logD stood at 3.91.
Molecule `C=CCn1c(=O)c(N(C)C)c(C)n(-c2ccccc2)c1=O` gave a logD of 1.98.
Regarding `CN(C)/N=C/CCc1ccccc1`, the logD worked out at 2.05. This logD and that of the molecule before are within 0.2 log units of each other.
`Cc1c(N(C)C)c(=O)n(CCO)c(=O)n1-c1ccccc1`: the pH-dependent lipophilicity (logD) was determined as 1.12.

The same data set, now with this note: pH 8.9.
The molecule `NNc1ccccc1` returned a log distribution coefficient (logD) of 1.25.

The same data set, now with this note: pH 9.0.
In turn, `NN1CCCCC1` yielded a logD of -0.28.

Still in this data set, the particulars now being: pH 11.0.
The molecule `CNC=CCCc1cccnc1` returned a logD of 1.13.
As for `CCNCc1cccnc1`, the pH-dependent lipophilicity (logD) was 0.76.
`CC(C)NCc1cccnc1`: the logD worked out at 0.82. The logD values of the last two molecules are within 0.2 log units of each other.
`c1cncc([C@@H]2CCCCN2)c1` had a logD of 0.97.
Molecule `CNCc1cccnc1` had a logD of 0.39.
On the same count and under the same terms, the figure for `c1cncc(CCN2CCCC2)c1` is 1.34.

The same data set, now with this note: pH 12.0.
Molecule `CCCCCC1CN[C@H](C(=O)NC(C(C)Cl)[C@H]2O[C@H](SC)[C@H](O)[C@@H](O)[C@H]2O)C1` (stereo in doubt) displayed a logD of 2.74.

The data set is the same for the next values; noted with them: pH 12.3.
Turning to `CCCC1CNC(C(=O)NC(C(C)Br)C2OC(SC)C(O)C(O)C2O)C1` (centres undefined), the logD was 1.77.

The data set is the same for the next values; noted with them: pH 13.0.
`CC(=O)c1ccc(N2C(N)=NC(N)=NC2(C)C)cc1` gave a logD of -0.04.
For `COc1ccc(Cc2cnc(N)nc2N)c(OC)c1OC`, the logD came to 1.52.
`CC1(C)N=C(N)N=C(N)N1c1ccc(I)cc1` came in with a logD of 1.39.
